US11872262B2, “Means and methods for treating bacterial infections” (VIB VZW, priority 2017, dated 2024)
Residues, ends and D or L forms follow the SMILES beside them.

test system: E. coli O157:H7; format: cell-based, Escherichia coli; settings: screening-stage peptides tested at 1, 6, 12 and 25 μg/mL
How it was run: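 Tandem-repeat aggregation-prone-region peptides from DMSO stocks were tested for growth inhibition of E. coli O157:H7 at 1, 6, 12 and 25 μg/mL.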

| Compound | E. coli O157 (apparent MIC in screen) [µg/mL] |
| --- | --- |
| CC(C)C[C@H](NC(=O)[C@H](C)NC(=O)[C@H](CC(C)C)NC(=O)[C@@H](NC(=O)[C@H](C)NC(=O)[C@H](CO)NC(=O)[C@H](CCCNC(=N)N)NC(=O)[C@@H]1CCCN1C(=O)[C@H](CCCNC(=N)N)NC(=O)[C@H](CCCNC(=N)N)NC(=O)[C@H](CC(C)C)NC(=O)[C@H](CC(C)C)NC(=O)[C@H](C)NC(=O)[C@H](CC(C)C)NC(=O)[C@H](CCCNC(=N)N)NC(=O)[C@H](C)NC(=O)[C@H](CO)NC(=O)[C@@H](N)CCCNC(=N)N)C(C)C)C(=O)N[C@@H](CC(C)C)C(=O)N[C@@H](CCCNC(=N)N)C(=O)N[C@@H](CCCNC(=N)N)C(=O)O [Peptide P93] (H-RSARLALLRRPRSAVLALLRR-OH; N-terminus and C-terminus assumed) | 25 |
| CC(C)C[C@H](NC(=O)CNC(=O)[C@H](CCCNC(=N)N)NC(=O)[C@@H]1CCCN1C(=O)[C@H](CCCNC(=N)N)NC(=O)[C@H](CCCNC(=N)N)NC(=O)[C@H](CCC(N)=O)NC(=O)[C@H](CC(C)C)NC(=O)[C@H](C)NC(=O)[C@H](CC(C)C)NC(=O)[C@H](CCCNC(=N)N)NC(=O)[C@H](CC(C)C)NC(=O)CNC(=O)[C@@H](N)CCCNC(=N)N)C(=O)N[C@@H](CC(C)C)C(=O)N[C@@H](CC(C)C)C(=O)N[C@@H](C)C(=O)N[C@@H](CC(C)C)C(=O)N[C@@H](CCC(N)=O)C(=O)N[C@@H](CCCNC(=N)N)C(=O)N[C@@H](CCCNC(=N)N)C(=O)O [Peptide P99] (H-RGLRLALQRRPRGLLLALQRR-OH; N-terminus and C-terminus assumed) | 25 |
| CC(C)C[C@H](NC(=O)[C@H](CC(C)C)NC(=O)[C@H](CC(C)C)NC(=O)[C@H](CCCNC(=N)N)NC(=O)[C@@H]1CCCN1C(=O)[C@H](CCCNC(=N)N)NC(=O)[C@H](CCCNC(=N)N)NC(=O)[C@@H](NC(=O)[C@H](CC(C)C)NC(=O)[C@H](CC(C)C)NC(=O)[C@H](CO)NC(=O)[C@H](CCCNC(=N)N)NC(=O)[C@H](CC(C)C)NC(=O)[C@H](CC(C)C)NC(=O)[C@@H](N)CCCNC(=N)N)C(C)C)C(=O)N[C@@H](CO)C(=O)N[C@@H](CC(C)C)C(=O)N[C@@H](CC(C)C)C(=O)N[C@H](C(=O)N[C@@H](CCCNC(=N)N)C(=O)N[C@@H](CCCNC(=N)N)C(=O)O)C(C)C [Peptide P101] (H-RLLRSLLVRRPRLLLSLLVRR-OH; N-terminus and C-terminus assumed) | 12 |
| CC(C)C[C@H](NC(=O)[C@H](C)NC(=O)[C@H](CC(C)C)NC(=O)[C@H](CC(C)C)NC(=O)[C@H](CC(C)C)NC(=O)[C@H](CCCNC(=N)N)NC(=O)[C@@H]1CCCN1C(=O)[C@H](CCCNC(=N)N)NC(=O)[C@H](CCCNC(=N)N)NC(=O)[C@H](CO)NC(=O)[C@H](CCCNC(=N)N)NC(=O)[C@H](CC(C)C)NC(=O)[C@H](C)NC(=O)[C@H](CC(C)C)NC(=O)[C@H](CC(C)C)NC(=O)[C@H](CC(C)C)NC(=O)[C@@H](N)CCCNC(=N)N)C(=O)N[C@@H](CC(C)C)C(=O)N[C@@H](CO)C(=O)N[C@@H](CCCNC(=N)N)C(=O)N[C@@H](CCCNC(=N)N)C(=O)O [Peptide P103] (H-RLLLALRSRRPRLLLALLSRR-OH; N-terminus and C-terminus assumed) | 25 |
| CC(C)C[C@H](NC(=O)[C@H](C)NC(=O)[C@@H](N)CCCNC(=N)N)C(=O)N[C@@H](CC(C)C)C(=O)N[C@@H](CCCNC(=N)N)C(=O)N[C@H](C(=O)N[C@@H](CC(C)C)C(=O)N[C@@H](CC(C)C)C(=O)N[C@@H](CCCNC(=N)N)C(=O)N[C@@H](CCCNC(=N)N)C(=O)N1CCC[C@H]1C(=O)N[C@@H](CCCNC(=N)N)C(=O)N[C@@H](C)C(=O)N[C@@H](CC(C)C)C(=O)N[C@@H](CC(C)C)C(=O)N[C@H](C(=O)N[C@H](C(=O)N[C@@H](CC(C)C)C(=O)N[C@@H](CC(C)C)C(=O)N[C@@H](CCCNC(=N)N)C(=O)N[C@@H](CCCNC(=N)N)C(=O)O)[C@@H](C)O)[C@@H](C)O)[C@@H](C)O [Peptide P105] (H-RALLRTLLRRPRALLTTLLRR-OH; N-terminus and C-terminus assumed) | 6 |
| CC(C)C[C@H](NC(=O)[C@H](C)NC(=O)[C@H](CC(C)C)NC(=O)[C@@H](NC(=O)[C@H](CCCNC(=N)N)NC(=O)[C@@H]1CCCN1C(=O)[C@H](CCCNC(=N)N)NC(=O)[C@H](CCCNC(=N)N)NC(=O)[C@H](CC(C)C)NC(=O)[C@H](C)NC(=O)[C@H](CCCNC(=N)N)NC(=O)[C@H](CC(C)C)NC(=O)[C@H](C)NC(=O)[C@H](CC(C)C)NC(=O)[C@@H](NC(=O)[C@@H](N)CCCNC(=N)N)C(C)C)C(C)C)C(=O)N[C@@H](C)C(=O)N[C@@H](C)C(=O)N[C@@H](CC(C)C)C(=O)N[C@@H](CCCNC(=N)N)C(=O)N[C@@H](CCCNC(=N)N)C(=O)O [Peptide P111] (H-RVLALRALRRPRVLALAALRR-OH; N-terminus and C-terminus assumed) | 25 |
| CC(C)C[C@H](NC(=O)[C@H](C)NC(=O)[C@@H](N)CCCNC(=N)N)C(=O)N[C@@H](C)C(=O)N[C@@H](CCCNC(=N)N)C(=O)N[C@@H](C)C(=O)N[C@@H](CC(C)C)C(=O)N[C@@H](CC(C)C)C(=O)N[C@@H](CCCNC(=N)N)C(=O)N[C@@H](CCCNC(=N)N)C(=O)N1CCC[C@H]1C(=O)N[C@@H](CCCNC(=N)N)C(=O)N[C@@H](C)C(=O)N[C@@H](CC(C)C)C(=O)N[C@@H](C)C(=O)N[C@H](C(=O)N[C@@H](C)C(=O)N[C@@H](CC(C)C)C(=O)N[C@@H](CC(C)C)C(=O)N[C@@H](CCCNC(=N)N)C(=O)N[C@@H](CCCNC(=N)N)C(=O)O)C(C)C [Peptide P112] (H-RALARALLRRPRALAVALLRR-OH; N-terminus and C-terminus assumed) | 25 |
| CC(C)C[C@H](NC(=O)CNC(=O)[C@H](CC(C)C)NC(=O)[C@@H](NC(=O)[C@H](C)NC(=O)[C@H](CCCNC(=N)N)NC(=O)[C@@H]1CCCN1C(=O)[C@H](CCCNC(=N)N)NC(=O)[C@H](CCCNC(=N)N)NC(=O)[C@H](C)NC(=O)[C@H](CC(C)C)NC(=O)[C@H](CC(C)C)NC(=O)[C@H](CCCNC(=N)N)NC(=O)[C@H](CC(C)C)NC(=O)[C@@H](NC(=O)[C@H](C)NC(=O)[C@@H](N)CCCNC(=N)N)C(C)C)C(C)C)C(=O)N[C@@H](CC(C)C)C(=O)N[C@@H](C)C(=O)N[C@@H](CCCNC(=N)N)C(=O)N[C@@H](CCCNC(=N)N)C(=O)O [Peptide P113] (H-RAVLRLLARRPRAVLGLLARR-OH; N-terminus and C-terminus assumed) | 25 |
| CC(C)C[C@H](NC(=O)CNC(=O)[C@H](CCCNC(=N)N)NC(=O)[C@@H]1CCCN1C(=O)[C@H](CCCNC(=N)N)NC(=O)[C@H](CCCNC(=N)N)NC(=O)[C@H](C)NC(=O)[C@H](CCCNC(=N)N)NC(=O)[C@H](CC(C)C)NC(=O)[C@H](C)NC(=O)[C@H](CC(C)C)NC(=O)[C@H](CC(C)C)NC(=O)CNC(=O)[C@@H](N)CCCNC(=N)N)C(=O)N[C@@H](CC(C)C)C(=O)N[C@@H](C)C(=O)N[C@@H](CC(C)C)C(=O)N[C@@H](CC(C)C)C(=O)N[C@@H](C)C(=O)N[C@@H](CCCNC(=N)N)C(=O)N[C@@H](CCCNC(=N)N)C(=O)O [Peptide P114] (H-RGLLALRARRPRGLLALLARR-OH; N-terminus and C-terminus assumed) | 25 |
| CC[C@H](C)[C@H](NC(=O)CNC(=O)[C@@H](NC(=O)[C@H](CC(C)C)NC(=O)[C@H](CCCNC(=N)N)NC(=O)[C@@H]1CCCN1C(=O)[C@H](CCCNC(=N)N)NC(=O)[C@H](CCCNC(=N)N)NC(=O)CNC(=O)[C@H](CC(C)C)NC(=O)[C@H](C)NC(=O)[C@@H](NC(=O)[C@H](CCCNC(=N)N)NC(=O)[C@@H](NC(=O)[C@H](CC(C)C)NC(=O)[C@@H](N)CCCNC(=N)N)[C@@H](C)CC)[C@@H](C)CC)[C@@H](C)CC)C(=O)N[C@@H](C)C(=O)N[C@@H](CC(C)C)C(=O)NCC(=O)N[C@@H](CCCNC(=N)N)C(=O)N[C@@H](CCCNC(=N)N)C(=O)O [Peptide P115] (H-RLIRIALGRRPRLIGIALGRR-OH; N-terminus and C-terminus assumed) | 25 |
| CC(C)C[C@H](NC(=O)[C@H](C)NC(=O)[C@H](CCCNC(=N)N)NC(=O)[C@@H]1CCCN1C(=O)[C@H](CCCNC(=N)N)NC(=O)[C@H](CCCNC(=N)N)NC(=O)[C@H](CCCNC(=N)N)NC(=O)[C@@H](NC(=O)[C@H](C)NC(=O)[C@@H](NC(=O)[C@H](CC(C)C)NC(=O)[C@H](CC(C)C)NC(=O)[C@H](C)NC(=O)[C@@H](N)CCCNC(=N)N)[C@@H](C)O)C(C)C)C(=O)N[C@@H](CC(C)C)C(=O)N[C@H](C(=O)N[C@@H](C)C(=O)N[C@H](C(=O)N[C@@H](CC(C)C)C(=O)N[C@@H](CCCNC(=N)N)C(=O)N[C@@H](CCCNC(=N)N)C(=O)O)C(C)C)[C@@H](C)O [Peptide P116] (H-RALLTAVRRRPRALLTAVLRR-OH; N-terminus and C-terminus assumed) | 6 |
| CC(C)C[C@H](NC(=O)[C@H](C)NC(=O)[C@@H](NC(=O)[C@H](CC(C)C)NC(=O)[C@H](CCC(N)=O)NC(=O)[C@H](CCCNC(=N)N)NC(=O)[C@@H]1CCCN1C(=O)[C@H](CCCNC(=N)N)NC(=O)[C@H](CCCNC(=N)N)NC(=O)[C@@H](NC(=O)[C@H](CCCNC(=N)N)NC(=O)[C@H](CC(C)C)NC(=O)[C@H](C)NC(=O)[C@@H](NC(=O)[C@H](CC(C)C)NC(=O)[C@H](CCC(N)=O)NC(=O)[C@@H](N)CCCNC(=N)N)C(C)C)C(C)C)C(C)C)C(=O)N[C@@H](CC(C)C)C(=O)N[C@H](C(=O)N[C@@H](CCCNC(=N)N)C(=O)N[C@@H](CCCNC(=N)N)C(=O)O)C(C)C [Peptide P117] (H-RQLVALRVRRPRQLVALLVRR-OH; N-terminus and C-terminus assumed) | 25 |
| CC(C)C[C@H](NC(=O)[C@H](C)NC(=O)[C@H](CC(C)C)NC(=O)[C@@H](NC(=O)[C@H](C)NC(=O)[C@H](CO)NC(=O)[C@H](CCCNC(=N)N)NC(=O)[C@@H]1CCCN1C(=O)[C@H](CCCNC(=N)N)NC(=O)[C@H](CCCNC(=N)N)NC(=O)[C@H](CC(C)C)NC(=O)[C@H](CC(C)C)NC(=O)[C@H](C)NC(=O)[C@H](CCCNC(=N)N)NC(=O)[C@@H](NC(=O)[C@H](C)NC(=O)[C@H](CO)NC(=O)[C@@H](N)CCCNC(=N)N)C(C)C)C(C)C)C(=O)N[C@@H](CC(C)C)C(=O)N[C@@H](CCCNC(=N)N)C(=O)N[C@@H](CCCNC(=N)N)C(=O)O [Peptide P118] (H-RSAVRALLRRPRSAVLALLRR-OH; N-terminus and C-terminus assumed) | 25 |
